Key:
[1] = GSK_TCAKS: pIC50 HepG2 human cell line viability assay using luminiscence. […] Seeding density was checked to ensure that new mono-layers were not more than 50% confluent at the time of harvesting. Cell suspension was added to 500 mL of the same medium at a final density of 1.2 * 10^5 cells/mL. This cell suspension was dispensed (25 uL, 3000 cells per well) into 384-well clear-bottom plates using a Multidrop Combi dispenser. Prior to addition of the cell suspension, the screening compounds (250 nL) were pre-dispensed into the plates with an Echo liquid handler. Plates were incubated for 48 h at 37C, 5% CO2. After incubation, plates equilibrated at room temperature for 30 min before proceeding to develop the luminescent signal. The signal developer, CellTiter-Glo Reagent, was allowed to equilibrate at room temperature for 30 min and added to the plates (25uL per well) using a Multidrop Combi dispenser. Plates were left for 10 min at room temperature for stabilization and then read using a ViewLux.; type: toxicity, cell-based
Leishmania donovani [2] = test: (§1) GSK_TCAKS: pIC50 Leishmania donovani Imaging: Amastigotes/Macrophages. Assay plates (384-well) were prepared by adding 250nL of compound to each well. For single shot assay, the final compound concentration was 5 uM. […] Automated image analysis was performed with a script developed on Acapella High Content Imaging and Analysis Software (PerkinElmer). Output: Average number of amastigotes per macrophage cell were reported for each well.; type: functional, organism-based, Homo sapiens; conditions: THP-1
[3] = test system: Trypanosoma brucei brucei; test: GSK_TCAKS: pIC50 Trypanosoma brucei viability assay using luminiscence. Assay plates (1536-well) were prepared. T. brucei cultures were harvested and counted in a CASY cell counter. A parasite suspension was prepared at a final concentration of 5 * 10^4 cells/mL in complete HMI9 medium and 6uL was dispensed to all wells containing compounds using a Multidrop Combi dispenser. 6uL of HMI9 media with 0.4% DMSO were dispensed to control columns. Plates were incubated for 24 h at 37C, 5% CO2 then tempered for 10 min at room temperature. ATP content was quantified by adding 4 uL of CellTiter-Glo Reagent (Promega) according to the manufacturer's instructions. Luminescence was measured using a ViewLux.; type: functional, organism-based; conditions: Lister 427, CASY
Trypanosoma cruzi [4] = test: GSK_TCAKS: pIC50 Trypanosoma cruzi viability assay using beta-GAL activity. This assay was run at single shot at 5uM compound concentration per well. The biological reagents consisted of NIH-3T3 host cells and trypomastigotes parasitic cells; both cell types were set to a 3.3 * 10^5 cells/mL dilution in assay DMEM by means of a CASY cell counter device using a 60um capillary. 6 uL of the mixture were dispensed per well (about 1 * 10^3 host-cells and 1 * 10^3 parasites) with a Multidrop Combi dispenser. […] In all wells, the percentage of DMSO never exceeded 0.5%. Plates incubated for four days at 37C, 5% CO2. The substrate used for the assay fluorescence intensity (FLINT) readout was resorufin-beta-D-galactopiranoside (Sigma-Aldrich) at 5uM per well. It was diluted in PBS supplemented with the soft detergent Igepal (Fluka).; type: functional, organism-based, Mus musculus; conditions: Tulahuen, NIH3T3
Leishmania donovani [5] = test: as §1, with “Infected Macrophages.” for “Amastigotes/Macrophages.”, “Percent” for “Average number”, “infected” for “amastigotes per”, “cells” for “cell”; type: functional, organism-based, Homo sapiens; conditions: THP-1
Trypanosoma cruzi [6] = test: (§2) GSK_TCAKS: pIC50 H2C9 Imaging: H9c2 Host Cardiomyocytes. […] Cells were then washed once with PBS before infection. T. cruzi trypomastigotes, collected at days 5 to 8 after infection from LLC-MK2 parasite infected cultures, were allowed to swim out for 4h at 37C from a centrifuged pellet (2,500 rpm/10 min/room temperature). Trypomastigotes were then collected and counted in a CASY Cell Counter. Trypomastigotes, in supplemented DMEM, were added to H9c2 cultures in a multiplicity of infection of 1 and incubated for 18 h. Cells were washed once with PBS before incubation of the infected H9c2 monolayer with trypsin (Life-Technologies) to detach cells from the flask. Cells were counted in a CASY Cell Counter using a 150 um capillary and their density set at 5 * 10^4 cells per mL in supplemented assay DMEM. Infected H9c2 were dispensed into 384-well poly-lysine coated assay plates at 50uL per well using a Multidrop Combi dispenser. After seeding them, the plates were incubated at 37C, 5% CO2 for 72h. Cultures were then fixed and stained by addition of 50 uL of a solution containing 8% formaldehyde and 4 uM DRAQ5 DNA dye (BioStatus, UK) per well. […] Five images were collected per well for reliable statistical analysis. Automated image analysis was performed with a script developed on Acapella High Content Imaging and Analysis Software (PerkinElmer). Output: Number of H9c2 Host Cardiomyocytes nuclei to determine drug-related cytotoxicity.; type: functional, organism-based, Rattus norvegicus; conditions: H9c2, 4 h
[7] = test system: Trypanosoma brucei brucei; test: GSK_TCAKS: pIC50 Trypanosoma brucei viability assay using fluorescence intensity. Assay plates (1536-well) were prepared by dispensing 25nL of compound solution per well using an Echo acoustic dispenser (Labcyte).; type: functional, organism-based; conditions: Lister 427, 2 h
Trypanosoma cruzi [8] = test: as §2, with “Trypanosoma cruzi” for “H2C9”, “Infected Cells.” for “H9c2 Host Cardiomyocytes.”, “percentage” for “Number”, “infected cells per well as a second infection marker.” for “H9c2 Host Cardiomyocytes nuclei to determine drug-related cytotoxicity.”; type: functional, organism-based, Rattus norvegicus; conditions: H9c2, 4 h
[9] = biological target: Sterol 14-alpha demethylase (Trypanosoma cruzi (strain CL Brener), UniProt Q7Z1V1); test: GSK_TCAKS: pIC50 CYP51 from Trypanosoma cruzi.; type: functional
Sterol 14-alpha demethylase, sequence (Q7Z1V1 whole entry): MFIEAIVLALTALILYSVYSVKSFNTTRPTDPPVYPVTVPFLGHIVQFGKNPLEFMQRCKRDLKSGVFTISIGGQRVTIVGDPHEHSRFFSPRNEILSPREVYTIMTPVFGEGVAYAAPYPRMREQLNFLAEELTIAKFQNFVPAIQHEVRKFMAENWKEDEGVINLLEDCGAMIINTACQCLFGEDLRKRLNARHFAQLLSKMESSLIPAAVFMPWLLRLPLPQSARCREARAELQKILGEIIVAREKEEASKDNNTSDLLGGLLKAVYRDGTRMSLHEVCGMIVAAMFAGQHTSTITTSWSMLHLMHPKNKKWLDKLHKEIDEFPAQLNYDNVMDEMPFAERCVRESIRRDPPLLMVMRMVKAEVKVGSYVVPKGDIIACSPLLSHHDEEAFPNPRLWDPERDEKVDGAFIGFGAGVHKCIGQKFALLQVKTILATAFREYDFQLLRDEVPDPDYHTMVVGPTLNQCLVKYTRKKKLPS

Leishmania donovani [10] = test: as §1, with “THP-1 Host Macrophages.” for “Amastigotes/Macrophages.”, “THP-1” for “Average number of amastigotes per macrophage”, “cell count” for “cell”; type: functional, organism-based, Homo sapiens
Trypanosoma cruzi [11] = test: as §2, with “Trypanosoma cruzi” for “H2C9”, “Amastigotes/Cell.” for “H9c2 Host Cardiomyocytes.”, “number” for “Number”, “amastigotes per cell as infection level measurement.” for “H9c2 Host Cardiomyocytes nuclei to determine drug-related cytotoxicity.”; type: functional, organism-based, Rattus norvegicus; conditions: H9c2, 4 h
Leishmania donovani [12] = test: GSK_TCAKS: pIC50 Leishmania donovani viability assay using fluorescence intensity. Assay plates (1536-well) were prepared by adding 30nL per well of compound. For single shot assay, the final compound concentration was 5uM. […] Briefly, eGFP LdBOB axenic amastigotes were harvested, fixed and counted in a CASY cell counter (Roche-Applied Science). A final concentration of 1.5 * 10^5 cells per well were prepared in amastigote media containing 500 U/mL penicillin/streptomycin (Invitrogen) and 6uL was dispensed to each experimental well using a Multidrop Combi dispenser (Thermo Scientific). 6uL of assay media was dispensed to control columns used as reference for 100% compound response. Following incubation for 72 h at 37C, 5% CO2, 2 uL of resazurin was added to each well at a final concentration of 0.5 mM in phosphate buffered saline (PBS) with IGEPAL (Sigma-Aldrich), 0.05% (v/v).; type: functional, organism-based

| Structure (SMILES) | IC50 at 48 h [1] [µM] | IC50 (Leishmania donovani [2]) [µM] | IC50 [3] [µM] | IC50 (Trypanosoma cruzi [4]) [µM] | IC50 (Leishmania donovani [5]) [µM] | IC50 (Trypanosoma cruzi [6]) [µM] | IC50 [7] [µM] | IC50 (Trypanosoma cruzi [8]) [µM] | IC50 [9] [µM] | IC50 (Leishmania donovani [10]) [µM] | IC50 (Trypanosoma cruzi [11]) [µM] | IC50 (Leishmania donovani [12]) [µM] |
| --- | --- | --- | --- | --- | --- | --- | --- | --- | --- | --- | --- | --- |
| O=C(NCCc1csc(-c2ccc(F)cc2)n1)c1cccs1 | > 100 | 20 | 0.2 | 0.398 | > 50.1 | > 50.1 | 0.251 | 0.398 | 25.1 | > 50.1 | 0.251 | > 50.1 |
| O=C(NCCc1csc(-c2cccc(F)c2)n1)c1ccco1 | > 100 | > 50.1 | 0.631 | 1.58 | > 50.1 | 10 | 0.501 | 1.58 | > 100 | > 50.1 | 1.26 | > 50.1 |
| O=C(Nc1ccccc1)Nc1nc(-c2ccccn2)cs1 | 25.1 | 0.251 | 1 | 0.631 | 0.398 | 1 | 1 | 1 | 31.6 | 6.31 | 0.631 | 1.58 |
| O=C(Nc1nc(-c2ccccn2)cs1)C1CCc2ccccc2C1 (stereo unspecified) | 39.8 | 0.398 | 3.16 | 2 | 0.631 | 3.98 | 3.16 | 2.51 | 25.1 | 7.94 | 2 | 5.01 |
| COc1ccc(-c2cnc(NC(=O)c3ccc(F)cc3)n2C)cc1 | > 100 | 0.501 | 3.16 | 2.51 | 1.26 | > 50.1 | 1.26 | 5.01 | 10 | > 50.1 | 2 | 3.16 |
| O=C(O)[C@H]1C[C@@H]1c1ccc(-c2ccc(CN(CCc3ccccn3)C(=O)C3CCC3)cc2)cc1 | > 100 | > 50.1 | 0.794 | > 50.1 | > 50.1 | > 50.1 | 0.631 | 31.6 | 20 | > 50.1 | 31.6 | 25.1 |
| CN(C)CCN(C)Cc1ccc(Cl)cc1NS(=O)(=O)c1ccc(Cl)c(Cl)c1 | 31.6 | 3.98 | 3.98 | 1.12 | 6.31 | 5.01 | 7.94 | 2 | 31.6 | 31.6 | 2 | 5.01 |
| O=C(Nc1nc2ccccc2[nH]1)c1c(O)c2cccc3c2n(c1=O)CC3 | 10 | 1 | 20 | 20 | 2 | 10 | 15.8 | 15.8 | > 100 | > 50.1 | 25.1 | 2.51 |
| N#Cc1ccc(C(=O)Nc2cccc(-c3cccc(CN4CCC(O)CC4)c3)c2)cc1 | 39.8 | 7.94 | 0.794 | 5.01 | 15.8 | 31.6 | 0.794 | 7.94 | 25.1 | 15.8 | 7.94 | > 50.1 |
| O=C(Nc1nc(-c2ccccn2)cs1)N1C[C@H]2C[C@@]2(c2ccccc2)C1 | 25.1 | 0.398 | 0.631 | 0.501 | 0.501 | 0.794 | 0.501 | 0.501 | 39.8 | 7.94 | 0.251 | 2 |
| CN(C)S(=O)(=O)c1cccc(C(=O)Nc2nc(-c3ccccn3)cs2)c1 | > 100 | 2.51 | 0.631 | 1.26 | 6.31 | 7.94 | 0.501 | 1.58 | 31.6 | 7.94 | 1 | 1.26 |
| O=C(CCCNC(=O)c1ccc(Cl)cc1)Nc1nc(-c2ccccn2)cs1 | > 100 | 3.16 | 12.6 | 6.31 | 5.01 | 25.1 | 7.94 | 25.1 | 3.16 | > 50.1 | 10 | > 50.1 |
| CCCNC(=O)Nc1cccc(-c2nc3ncccc3o2)c1 | > 100 | 15.8 | 1 | 2.82 | 12.6 | 25.1 | 0.501 | 3.98 | > 100 | 20 | 3.16 | 3.16 |
| CN(C)c1ccc(N)cc1CN(CC1CCCO1)S(C)(=O)=O (stereo unspecified) | > 100 | 10 | > 39.8 | > 50.1 | 12.6 | > 50.1 | > 39.8 | > 50.1 | > 100 | > 50.1 | > 50.1 | 3.98 |
| COc1ccc(C2CC(c3ccccc3Cl)=NN2C(=O)CNC(=O)C2CCCC2)cc1 (stereo unspecified) | > 100 | > 50.1 | 0.794 | 3.55 | > 50.1 | > 50.1 | 0.631 | 3.16 | 63.1 | > 50.1 | 2 | > 50.1 |
| Cc1nc2c(-c3cccs3)c(C)nn2c(NCCO)c1C | > 100 | > 50.1 | 0.2 | 39.8 | > 50.1 | > 50.1 | 0.126 | 31.6 | > 100 | > 50.1 | 15.8 | > 50.1 |
| O=C(Nc1ccc(C(F)(F)F)cc1)NC1(C(=O)NCc2ccco2)CCCCC1 | > 100 | > 50.1 | 1 | 7.94 | > 50.1 | > 50.1 | 0.794 | > 50.1 | > 31.6 | 31.6 | > 50.1 | 39.8 |
| CCN(CC)c1nc(Nc2ccncc2)nc2ccccc12 | 50.1 | 2 | 5.01 | 0.126 | 6.31 | 7.94 | 2.51 | 0.0794 | > 100 | 25.1 | 0.00501 | 0.794 |
